{
  "source": "patent US9815847B2",
  "about": "(Icahn School of Medicine at Mount Sinai, priority 2013, dated 2017)",
  "format_in_all_cases": "cell-based",
  "key": {"[1]": {"system": "K562", "test": "Cytotoxicity on K562 cancer cell line", "conditions": "Homo sapiens; K562 chronic myelogenous leukemia; 96 h; 0.01-100 μM", "in_short": "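K562 (Bcr-Abl-positive leukaemia) or DU145 prostate cells, 2.5×10^4 per well, dosed 24 h after plating with compound in DMSO at 0.01–100 μM. Assessed 96 h later by microscopic observation and, where needed, viable counts by trypan blue exclusion.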"}, "[2]": {"system": "32D-T315I", "test": "Cytotoxicity assay, dose response end point", "conditions": "chronic myelogenous leukemia, 96 h", "experimental": "(§1) The following tumor cell lines were tested using a dose response end point assay system with compound (8h). The cells were grown in either DMEM or RPMI supplemented with 10% fetal bovine serum and 1 unit/mL Penicillin-Streptomycin solution. The tumor cells were plated into 6-well dishes at a cell density of 1.0×10^5 cells/mL/well and the test compound was added 24 h. later at various concentrations. Cell counts were determined from duplicate wells after 96 h. of treatment. The total number of viable cells was determined by trypan blue exclusion."}, "[3]": {"system": "A431", "test": "Cytotoxicity assay, dose response end point", "conditions": "Homo sapiens, A-431; A431, epidermoid carcinoma; 96 h", "experimental": "as §1"}, "[4]": {"system": "BT474", "test": "Cytotoxicity assay, dose response end point", "conditions": "Homo sapiens, BT-474; BT474, Breast carcinoma; 96 h", "experimental": "as §1"}, "[5]": {"system": "HCT-116", "test": "Cytotoxicity assay, dose response end point", "conditions": "Homo sapiens; HCT-116, colon cancer; 96 h", "experimental": "as §1"}, "[6]": {"system": "HELA", "test": "Cytotoxicity assay, dose response end point", "conditions": "Homo sapiens, Cervical adenocarinoma, 96 h", "experimental": "as §1"}, "[7]": {"system": "HEL", "test": "Cytotoxicity assay, dose response end point", "conditions": "human erythroleukemia, 96 h", "experimental": "as §1"}, "[8]": {"system": "HFL-1", "test": "Cytotoxicity assay, dose response end point", "conditions": "Homo sapiens, HFL1; HFL-1, fetal lung fibroblast; 96 h", "experimental": "as §1"}, "[9]": {"system": "HT-29", "test": "Cytotoxicity assay, dose response end point", "conditions": "Homo sapiens; HT-29, colonic adenocarcinoma; 96 h", "experimental": "as §1"}, "[10]": {"system": "KG-1a", "test": "Cytotoxicity assay, dose response end point", "conditions": "Homo sapiens, acute myelogenous leukemia, 96 h", "experimental": "as §1"}, "[11]": {"system": "MES-SA/DX5", "test": "Cytotoxicity assay, dose response end point", "conditions": "Homo sapiens; MES-SA/DX5, Uterine sarcoma; 96 h", "experimental": "as §1"}, "[12]": {"system": "MES-SA", "test": "Cytotoxicity assay, dose response end point", "conditions": "Homo sapiens, uterine sarcoma, 96 h", "experimental": "as §1"}, "[13]": {"system": "PANC 03.27", "test": "Cytotoxicity assay, dose response end point", "conditions": "Homo sapiens, PANC-03-27; PANC 03.27, Pancreatic adenocarcinoma; 96 h", "experimental": "as §1"}, "[14]": {"system": "PANC 10.05", "test": "Cytotoxicity assay, dose response end point", "conditions": "Homo sapiens, Panc1005; PANC 10.05, pancreatic adenocarcinoma; 96 h", "experimental": "as §1"}, "[15]": {"system": "U937", "test": "Cytotoxicity assay, dose response end point", "conditions": "Homo sapiens, U-937; U937, histiocytic lymphoma; 96 h", "experimental": "as §1"}},
  "data": [
    {"smiles": "CN1CCN(c2ccc(Nc3ncc(/C=C/C#N)c(NC4CCCC4)n3)cc2)CC1", "note": "[Compound 8h, 3-{4-Cyclopentylamino-2-[4-(4-methylpiperazin-1-yl)phenylamino]pyrimidin-5-yl}acrylonitrile]", "values": [
      {"measurement": "IC50", "setting": "[1]", "value": "< 1000", "unit": "nM"},
      {"measurement": "GI50", "setting": "[2]", "value": 500, "unit": "nM"},
      {"measurement": "GI50", "setting": "[3]", "value": 100, "unit": "nM"},
      {"measurement": "GI50", "setting": "[4]", "value": 2500, "unit": "nM"},
      {"measurement": "GI50", "setting": "[5]", "value": 500, "unit": "nM"},
      {"measurement": "GI50", "setting": "[6]", "value": "> 5000", "unit": "nM"},
      {"measurement": "GI50", "setting": "[7]", "value": "< 250", "unit": "nM"},
      {"measurement": "GI50", "setting": "[8]", "value": 100, "unit": "nM"},
      {"measurement": "GI50", "setting": "[9]", "value": 50, "unit": "nM"},
      {"measurement": "GI50", "setting": "[10]", "value": "< 20", "unit": "nM"},
      {"measurement": "GI50", "setting": "[11]", "value": "< 20", "unit": "nM"},
      {"measurement": "GI50", "setting": "[12]", "value": 20, "unit": "nM"},
      {"measurement": "GI50", "setting": "[13]", "value": 3000, "unit": "nM"},
      {"measurement": "GI50", "setting": "[14]", "value": "> 5000", "unit": "nM"},
      {"measurement": "GI50", "setting": "[15]", "value": 100, "unit": "nM"}
    ]}
  ]
}
